# Measured values reported in US12377084B2, “ERAP1 modulators” (GREY WOLF THERAPEUTICS LIMITED, priority 2019, dated 2025).
# Structures can show the parent of a compound that is named as a salt.
# Target: T1, Purified ERAP1(37-941)-10 His (ERAP1) (Homo sapiens, UniProt Q9NZ08)
# T1 construct: Purified ERAP1(37-941)-10 His (ERAP1); 10xHis (C)
# Test: ERAP1 mediated hydrolysis of an amide substrate in a biochemical system (10 mer inhibition assay)
# Settings: 10-mer substrate, incubated at 23° C. for 1 h; excitation 279 nm, emission 355 nm; read-out: IC50 vs Decapeptide WRVYEKC(Dnp)ALK-acid (where Dnp is Dinitrophenyl maleimide) (10-mer)
# Excerpt: This peptide has minimal fluorescence as the N-terminal tryptophan residue's fluorescence is quenched by the dinitrophenol (DNP) residue within the peptide. However, as ERAP1 hydrolyses the N-terminal amide bond and tryptophan is released this internal quenching is lost and the reaction is monitored by the increase in tryptophan fluorescence over the course of the assay. For the purposes of this application this assay is referred to as the “10 mer inhibition assay” and compound potencies are calculated and expressed as IC50 as would be familiar to a person skilled in the art.
# Biological Assay 1: ERAP1 Mediated Hydrolysis of an Amide Substrate Measured in a Biochemical System
# 1× Assay buffer (AB): 25 mM Bis-tris propane, 0.05% w/v
# Hydroxypropylmethylcellulose pH 7.75 made with Optima grade water
# Decapeptide WRVYEKC(Dnp)ALK-acid (where Dnp is Dinitrophenyl maleimide) (10-mer)
# 12.5 μL ERAP1 enzyme in 1×AB was combined with 250 nL test compound in DMSO. 12.5 μL of either 240 μM L-AMC in 1×AB or 100 μM 10-mer in 1×AB was added to the reaction and incubated at 23° C. for 1 h. For detection, plates were read at excitation 365 nm and emission 442 nm (L-AMC) or excitation 279 nm and emission 355 nm (10-mer). Compound IC50 was determined using a 4-parameter equation.
# T1 sequence (Q9NZ08 37-941): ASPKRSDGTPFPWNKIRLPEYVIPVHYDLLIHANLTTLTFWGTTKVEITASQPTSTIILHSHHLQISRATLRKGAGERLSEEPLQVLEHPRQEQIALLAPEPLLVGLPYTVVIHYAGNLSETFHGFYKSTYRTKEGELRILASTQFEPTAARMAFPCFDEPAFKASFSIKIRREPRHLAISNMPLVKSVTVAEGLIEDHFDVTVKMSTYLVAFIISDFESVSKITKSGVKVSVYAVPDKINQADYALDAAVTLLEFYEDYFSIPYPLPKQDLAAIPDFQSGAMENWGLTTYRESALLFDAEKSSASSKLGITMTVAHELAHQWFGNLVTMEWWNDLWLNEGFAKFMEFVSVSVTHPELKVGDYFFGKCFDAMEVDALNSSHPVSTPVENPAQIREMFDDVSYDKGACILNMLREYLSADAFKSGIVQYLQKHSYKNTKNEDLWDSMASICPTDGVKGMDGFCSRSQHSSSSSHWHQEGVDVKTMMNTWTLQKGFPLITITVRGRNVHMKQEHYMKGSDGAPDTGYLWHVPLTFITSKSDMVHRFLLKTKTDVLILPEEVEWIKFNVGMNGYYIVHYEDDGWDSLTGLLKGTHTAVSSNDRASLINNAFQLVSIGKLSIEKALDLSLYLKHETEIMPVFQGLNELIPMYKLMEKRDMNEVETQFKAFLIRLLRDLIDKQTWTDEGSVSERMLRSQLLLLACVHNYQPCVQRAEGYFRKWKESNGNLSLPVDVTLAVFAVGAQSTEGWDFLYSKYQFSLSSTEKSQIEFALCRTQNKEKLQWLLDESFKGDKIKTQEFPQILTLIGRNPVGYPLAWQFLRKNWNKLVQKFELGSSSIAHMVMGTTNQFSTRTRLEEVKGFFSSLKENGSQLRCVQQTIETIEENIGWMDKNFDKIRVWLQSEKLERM
row,Structure (SMILES),IC50
1,"O=C(O)c1ccc(C2CC2)c(S(=O)(=O)Nc2cc(C(F)(F)F)ccc2C2CCCCN2)c1 (single isomer, unassigned; enantiomer 1) [Example 29, 4-cyclopropyl-3-(N-(2-(piperidin-2-yl)-5-(trifluoromethyl)phenyl)sulfamoyl)benzoic Acid Enantiomer 1]",< 100 nM
2,"O=C(O)c1ccc(C2CC2)c(S(=O)(=O)Nc2cc(C(F)(F)F)ccc2C2CCCCN2)c1 (single isomer, unassigned; enantiomer 2) [Example 30, 4-cyclopropyl-3-(N-(2-(piperidin-2-yl)-5-(trifluoromethyl)phenyl)sulfamoyl)benzoic Acid Enantiomer 2]",< 100 nM
3,"COc1ccc(C(=O)O)cc1S(=O)(=O)Nc1cc(C(F)(F)F)ccc1C1CCCN(C)C1 (stereo not shown) [Example 1, 4-methoxy-3-(N-(2-(1-methylpiperidin-3-yl)-5-(trifluoromethyl)phenyl)sulfamoyl)benzoic Acid]",> 500 nM
4,"COc1ccc(C(=O)O)cc1S(=O)(=O)Nc1cc(C(F)(F)F)ccc1C1CCCNC1 (stereo not shown) [Example 2, 4-methoxy-3-(N-(2-(piperidin-3-yl)-5-(trifluoromethyl)phenyl)sulfamoyl)benzoic Acid Hydrochloride]",100 to 500 nM
5,"CCc1ccc(C(=O)O)cc1S(=O)(=O)Nc1cc(C(F)(F)F)ccc1C1CCCNC1 (stereo not shown) [Example 3, 4-ethyl-3-(N-(2-(piperidin-3-yl)-5-(trifluoromethyl)phenyl)sulfamoyl)benzoic Acid Hydrochloride]",< 100 nM
6,"CCc1ccc(C(=O)O)cc1S(=O)(=O)Nc1cc(-n2cnnn2)ccc1C1CCCCC1 [Example 4, 3-(N-(2-cyclohexyl-5-(tetrazol-1-yl)phenyl)sulfamoyl)-4-ethylbenzoic Acid]",< 100 nM
7,"CCc1ccc(C(=O)O)cc1S(=O)(=O)Nc1cc(C(F)(F)F)ccc1C1CCCN1 (stereo not shown) [Example 5, 4-ethyl-3-(N-(2-(pyrrolidin-2-yl)-5-(trifluoromethyl)phenyl)sulfamoyl)benzoic Acid]",100 to 500 nM
8,"CCc1ccc(C(=O)O)cc1S(=O)(=O)Nc1cc(C(F)(F)F)ccc1C1CCCN1C (stereo not shown) [Example 6, 4-ethyl-3-(N-(2-(1-methylpyrrolidin-2-yl)-5-(trifluoromethyl)phenyl)sulfamoyl)benzoic]",100 to 500 nM
9,"CCc1ccc(C(=O)O)cc1S(=O)(=O)Nc1cc(C(F)(F)F)ccc1C1CCNC1 (stereo not shown) [Example 7, 4-ethyl-3-(N-(2-(pyrrolidin-3-yl)-5-(trifluoromethyl)phenyl)sulfamoyl)benzoic Acid]",< 100 nM
10,"CCc1ccc(C(=O)O)cc1S(=O)(=O)Nc1cc(C(F)(F)F)ccc1C1CCCCN1 (stereo not shown) [Example 8, 4-ethyl-3-(N-(2-(piperidin-2-yl)-5-(trifluoromethyl)phenyl)sulfamoyl)benzoic Acid]",< 100 nM
11,"CCc1ccc(C(=O)O)cc1S(=O)(=O)Nc1cc(C(F)(F)F)ccc1C1CCCCC1 [Example 9, 3-(N-(2-cyclohexyl-5-(trifluoromethyl)phenyl)sulfamoyl)-4-ethylbenzoic Acid]",< 100 nM
12,"CCc1ccc(C(=O)O)cc1S(=O)(=O)Nc1cc(C(F)(F)F)ccc1C1CCCCN1C (stereo not shown) [Example 10, 4-ethyl-3-(N-(2-(1-methylpiperidin-2-yl)-5-(trifluoromethyl)phenyl)sulfamoyl)benzoic Acid]",< 100 nM
13,"CCc1ccc(C(=O)O)cc1S(=O)(=O)Nc1cc(S(C)(=O)=O)ccc1C1CCCCC1 [Example 11, 3-(N-(2-cyclohexyl-5-(methylsulfonyl)phenyl)sulfamoyl)-4-ethylbenzoic Acid]",< 100 nM
14,"O=C(O)c1ccc(C2CC2)c(S(=O)(=O)Nc2cc(C(F)(F)F)ccc2C2CCCNC2)c1 (stereo not shown) [Example 12, 4-cyclopropyl-3-(N-(2-(piperidin-3-yl)-5-(trifluoromethyl)phenyl)sulfamoyl)benzoic Acid]",< 100 nM
15,"CCc1ccc(C(=O)O)cc1S(=O)(=O)Nc1cc(C#N)ccc1C1CCCCC1 [Example 13, 3-(N-(5-cyano-2-cyclohexylphenyl)sulfamoyl)-4-ethylbenzoic Acid]",< 100 nM
16,"CCc1ccc(C(=O)O)cc1S(=O)(=O)Nc1cc(S(C)(=O)=O)ccc1C1CCCNC1 (stereo not shown) [Example 14, 4-ethyl-3-(N-(5-(methylsulfonyl)-2-(piperidin-3-yl)phenyl)sulfamoyl)benzoic Acid]",< 100 nM

row,Structure (SMILES),IC50
1,"CCc1ccc(C(=O)O)cc1S(=O)(=O)Nc1cc(S(C)(=O)=O)ccc1C1CCCCN1 (stereo not shown) [Example 15, 4-ethyl-3-(N-(5-(methylsulfonyl)-2-(piperidin-2-yl)phenyl)sulfamoyl)benzoic Acid]",< 100 nM
2,"O=C(O)c1ccc(C2CC2)c(S(=O)(=O)Nc2cc(C(F)(F)F)ccc2C2CCCCN2)c1 (stereo not shown) [Example 16, 4-cyclopropyl-3-(N-(2-(piperidin-2-yl)-5-(trifluoromethyl)phenyl)sulfamoyl)benzoic Acid]",< 100 nM
3,"CS(=O)(=O)c1ccc(C2CCCCC2)c(NS(=O)(=O)c2cc(C(=O)O)ccc2C2CC2)c1 [Example 17, 3-(N-(2-cyclohexyl-5-(methylsulfonyl)phenyl)sulfamoyl)-4-cyclopropylbenzoic Acid]",< 100 nM
4,"N#Cc1ccc(C2CCCCC2)c(NS(=O)(=O)c2cc(C(=O)O)ccc2C2CC2)c1 [Example 18, 3-(N-(5-cyano-2-cyclohexylphenyl)sulfamoyl)-4-cyclopropylbenzoic Acid]",< 100 nM
5,"N#Cc1ccc(C2CCCCN2)c(NS(=O)(=O)c2cc(C(=O)O)ccc2C2CC2)c1 (stereo not shown) [Example 19, 3-(N-(5-cyano-2-(piperidin-2-yl)phenyl)sulfamoyl)-4-cyclopropylbenzoic Acid]",< 100 nM
6,"CS(=O)(=O)c1ccc(C2CCCCN2)c(NS(=O)(=O)c2cc(C(=O)O)ccc2C2CC2)c1 (stereo not shown) [Example 20, 4-cyclopropyl-3-(N-(5-(methylsulfonyl)-2-(piperidin-2-yl)phenyl)sulfamoyl)benzoic Acid]",< 100 nM
7,"N#Cc1cc(NS(=O)(=O)c2cc(C(=O)O)ccc2C2CC2)c(C2CCCCN2)cc1F (stereo not shown) [Example 21, 3-(N-(5-cyano-4-fluoro-2-(piperidin-2-yl)phenyl)sulfamoyl)-4-cyclopropylbenzoic Acid]",< 100 nM
8,"N#Cc1cc(NS(=O)(=O)c2cc(C(=O)O)ccc2C2CC2)c(C2CCCCN2)cc1Cl (stereo not shown) [Example 22, 3-(N-(4-chloro-5-cyano-2-(piperidin-2-yl)phenyl)sulfamoyl)-4-cyclopropylbenzoic Acid]",< 100 nM
9,"O=C(O)c1ccc(C2CC2)c(S(=O)(=O)Nc2cc(-n3cnnn3)ccc2C2CCCCN2)c1 (stereo not shown) [Example 23, 4-cyclopropyl-3-(N-(2-(piperidin-2-yl)-5-(tetrazol-1-yl)phenyl)sulfamoyl)benzoic Acid]",< 100 nM
10,"O=C(O)c1ccc(C2CC2)c(S(=O)(=O)Nc2cc(C(F)(F)F)c(F)cc2C2CCCCN2)c1 (stereo not shown) [Example 24, 4-cyclopropyl-3-(N-(4-fluoro-2-(piperidin-2-yl)-5-(trifluoromethyl)phenyl)sulfamoyl)benzoic Acid]",< 100 nM
11,"CS(=O)(=O)c1cc(NS(=O)(=O)c2cc(C(=O)O)ccc2C2CC2)c(C2CCCCN2)cc1F (stereo not shown) [Example 25, 4-cyclopropyl-3-(N-(4-fluoro-5-(methylsulfonyl)-2-(piperidin-2-yl)phenyl)sulfamoyl)benzoic Acid Hydrochloride]",< 100 nM
12,"O=C(O)c1ccc(C2CC2)c(S(=O)(=O)Nc2cc(C(F)(F)F)c(Cl)cc2C2CCCCN2)c1 (stereo not shown) [Example 26, 3-(N-(4-chloro-2-(piperidin-2-yl)-5-(trifluoromethyl)phenyl)sulfamoyl)-4-cyclopropylbenzoic Acid]",< 100 nM
13,"CS(=O)(=O)c1cc(NS(=O)(=O)c2cc(C(=O)O)ccc2C2CC2)c(C2CCCCN2)cc1Cl (stereo not shown) [Example 27, 3-(N-(4-chloro-5-(methylsulfonyl)-2-(piperidin-2-yl)phenyl)sulfamoyl)-4-cyclopropylbenzoic Acid Hydrochloride]",< 100 nM
14,"O=C(O)c1ccc(C2CC2)c(S(=O)(=O)Nc2cc(-c3ccns3)ccc2C2CCCCN2)c1 (stereo not shown) [Example 28, 4-cyclopropyl-3-(N-(5-(isothiazol-5-yl)-2-(piperidin-2-yl)phenyl)sulfamoyl)benzoic Acid]",< 100 nM
15,"O=C(O)c1cc(F)c(C2CC2)c(S(=O)(=O)Nc2cc(C(F)(F)F)ccc2C2CCCCN2)c1 (stereo not shown) [Example 31, 4-cyclopropyl-3-fluoro-5-(N-(2-(piperidin-2-yl)-5-(trifluoromethyl)phenyl)sulfamoyl)benzoic Acid]",< 100 nM
